Source: US10285983B2, “3-(1H-pyrrolo[2,3-B]pyridin-2-yl)-1H-pyrazolo[3,4-B] pyridines and therapeutic uses thereof” (Samumed, LLC, priority 2015, dated 2019)

Columns and labels:
Format in all cases: cell-based
[1] = system: Wnt activity (Sp5-Luc reporter, SW480 colon carcinoma cells); experiment: Wnt activity screening assay, Sp5-Luc reporter gene in SW480 cells; conditions: Homo sapiens; for inhibition at 10 µM: given for EC50 >10 μM, read-out: percent inhibition at 10 μM; for EC50: overnight incubation
Description: The screening assay for Wnt activity is described as follows. Reporter cell lines can be generated by stably transducing cancer cell lines (e.g., colon cancer) or primary cells (e.g., IEC-6 intestinal cells) with a lentiviral construct that includes a Wnt-responsive promoter driving expression of the firefly luciferase gene.
SW480 colon carcinoma cells were transduced with a lentiviral vector expressing luciferase with a human Sp5 promoter consisting of a sequence of eight TCF/LEF binding sites. SW480 cells stably expressing the Sp5-Luc reporter gene and a hygromycin resistance gene were selected by treatment with 150 μg/mL of hygromycin for 7 days. These stably transduced SW480 cells were expanded in cell culture and used for all further screening activities. Each compound was dissolved in DMSO as a 10 mM stock and used to prepare compound source plates. Serial dilution (1:3, 10-point dose-response curves starting from 10 μM) and compound transfer was performed using the ECHO 550 (Labcyte, Sunnyvale, Calif.) into 384-well white solid bottom assay plates (Greiner Bio-One) with appropriate DMSO backfill for a final DMSO concentration of 0.1%. For Sp5-Luc reporter gene assays, the cells were plated at 4,000 cells/well in 384-well plates with medium containing 1% fetal bovine serum and incubated overnight at 37° C. and 5% CO2. Following incubation, 20 μl of BrightGlo luminescence reagent (Promega) was added to each well of the 384-well assay plates. The plates were placed on an orbital shaker for 2 min and then luminescence was quantified using the Envision (Perkin Elmer) plate reader. Readings were normalized to DMSO only treated cells, and normalized activities were utilized for EC50 calculations using the dose-response log (inhibitor) vs. response—variable slope (four parameters) nonlinear regression feature available in GraphPad Prism 5.0 (or Dotmatics). For EC50 of >10 μM, the percent inhibition at 10 μM is provided.

[2] = system: SW480 colon cancer cells; experiment: Cell viability assay (CellTiter-Blue); conditions: Homo sapiens, 96 h, four days; for inhibition at 10 µM: given for EC50 >10 μM, read-out: percent inhibition at 10 μM
Experimental: Representative compounds were screened using the following assay procedure to assess the effect on cell viability as described below.
Each compound was dissolved in DMSO as a 10 mM stock and used to prepare compound source plates. Serial dilution (1:3, 8-point dose-response curves from 10 μM to 0.0045 μM) and compound transfer was performed using the ECHO 550 (Labcyte, Sunnyvale, Calif.) into 96-well clear bottom, black-walled plates (Corning-Costar).
Approximately 2×10^3 SW480 colon cancer cells were seeded into each well and allowed to incubate in the presence or absence of compound for four days at 37° C./5% CO2. Eight replicates of DMSO-treated cells served as controls and cells treated with compound were performed in duplicate.
After incubation, 20 μL of CellTiter-Blue (Promega) was added to each well allowed to incubate for approximately 3 hours. This reagent was a buffered solution which contains resazurin, metabolically active cells were able to reduce rezarurin (blue) into resorufin (pink) which was highly fluorescent. This measured fluorescence was used as a readout for cell viability.
After incubation, the plates were read at Ex 560 nm Em 590 nm (Cytation 3, BioTek). Dose-response curves were generated and EC50 concentration values were calculated using non-linear regression curve fit in the GraphPad Prism (San Diego, Calif.) or Dotmatics' Studies Software (Bishops Stortford, UK). For EC50 of >10 μM, the percent inhibition at 10 μM is provided.

[3] = system: primary human fibroblasts derived from IPF patients (LL29 cells); experiment: Inhibition of fibrotic process, αSMA staining in TGF-β1 treated LL29 fibroblasts; conditions: Fibroblast, 96 h, TGF-β1 20 ng/mL, 4 days; for EC50: % αSMA positive cells
Description: Representative compounds were screened using primary human fibroblasts (derived from IPF patients) treated with TGF-β1 to determine their ability to inhibit the fibrotic process.
Primary human fibroblasts derived from IPF patients (LL29 cells) [^1Xiaoqiu Liu, et. al., “Fibrotic Lung Fibroblasts Show Blunted Inhibition by cAMP Due to Deficient cAMP Response Element-Binding Protein Phosphorylation”, Journal of Pharmacology and Experimental Therapeutics (2005), 315(2), 678-687; ^2Watts, K. L., et. al., “RhoA signaling modulates cyclin D1 expression in human lung fibroblasts; implications for idiopathic pulmonary fibrosis”, Respiratory Research (2006), 7(1), 88] were obtained from American Type Culture Collection (ATCC) and expanded in F12 medium supplemented with 15% Fetal Bovine Serum and Penicillin/Streptomycin.
Each compound was dissolved in DMSO as a 10 mM stock and used to prepare compound source plates. Serial dilution (1:2, 11-point dose-response curves from […] to […]) and compound transfer was performed using the ECHO 550 (Labcyte, Sunnyvale, Calif.) into 384-well clear bottom assay plates (Greiner Bio-One) with appropriate DMSO backfill for a final DMSO concentration of 0.1%. LL29 cells are plated at 1,500 cells/well in 80 μL/well F12 medium supplemented with 1% Fetal Bovine Serum. One hour after addition of the cells, TGF-β1 (Peprotech; 20 ng/mL) was added to the plates to induce fibrosis (ref. 1 and 2 above). Wells treated with TGF-β1 and containing DMSO were used as controls. Cells were incubated at 37° C. and 5% CO2 for 4 days. Following incubation for 4 days, SYTOX green nucleic acid stain (Life Technologies [Thermo Fisher Scientific]) was added to the wells at a final concentration of 1 μM and incubated at room temperature for 30 min. Cells were then fixed using 4% formaldehyde (Electron Microscopy Sciences), washed 3 times with PBS followed by blocking and permeabilization using 3% Bovine Serum Albumin (BSA; Sigma) and 0.3% Triton X-100 (Sigma) in PBS. Cells were then stained with antibody specific to α-smooth muscle actin (αSMA; Abcam) (ref. 1 and 2 above) in 3% Bovine Serum Albumin (BSA; Sigma) and 0.3% Triton X-100 (Sigma) in PBS, and incubated overnight at 4° C. Cells were then washed 3 times with PBS, followed by incubation with Alexa Flor-647 conjugated secondary antibody (Life Technologies [Thermo Fisher Scientific]) and DAPI at room temperature for 1 hour. Cells were then washed 3 times with PBS and plates were sealed for imaging. αSMA staining was imaged by excitation at 630 nm and emission at 665 nm and quantified using the Compartmental Analysis program on the CellInsight CX5 (Thermo Scientific). Dead or apoptotic cells were excluded from analysis based on positive SYTOX green staining. % of total cells positive for αSMA were counted in each well and normalized to the average of 11 wells treated with TGF-β1 on the same plate using Dotmatics' Studies Software. The normalized averages (fold change over untreated) of 3 replicate wells for each compound concentration were used to create dose-responses curves and EC50 values were calculated using non-linear regression curve fit in the Dotmatics' Studies Software. For EC50 of >10 μM, the percent inhibition at 10 μM is provided.

[4] = system: IL-6 (THP-1 human monocyte cell line); experiment: IL-6 inhibition in LPS-stimulated THP-1 cells (HTRF); conditions: LPS 500 ng/mL, 22 hours, IL6 HTRF
Experimental: Human monocyte cell line (THP-1 cells; Catalog # TIB-202, ATCC, Manassas, Va.) were cultured in Roswell Park Memorial Institute (RPMI) 1640 Medium (Catalog #21870-100, Buffalo, N.Y.) with 1% L-glutamine, 1% HEPES, 1% Sodium Pyruvate, 2% Sodium Bicarbonate supplemented with 100 units/mL penicillin, 50 μg/mL streptomycin, 2-mercaptoethanol (0.05 mM) [basal medium] and 10% fetal bovine serum (Catalog #16140089, Life Technologies, Carlsbad, Calif.) at 37° C. and 5% CO2.
THP-1 cells were cultured in basal media with 1% FBS for 24 hours before the start of the assay. Each compound was dissolved in DMSO as a 10 mM stock and used to prepare compound source plates. Serial dilution (1:3, 10-point dose-response curves starting from […]) and compound transfer was performed using the ECHO 550 (Labcyte, Sunnyvale, Calif.) into 384-well white low volume assay plates (Greiner Bio-One) with appropriate DMSO backfill for a final DMSO concentration of 0.1%. THP-1 cells were plated at 5000 cells/well in the 384-well plates and incubated at 37° C. for 2 h. 500 ng/mL of LPS was added after 2 hours and cells were incubated for another 22 hours at 37° C. Plates were spun in a centrifuge for 1 minute at 10,000 rpm and a mixture of anti-IL6 XL665, and anti-IL6 Cryptate diluted in reconstitution buffer (Cisbio Inc.) was added to each well. Following incubation for 3 hrs at room temperature, Homogeneous Time-Resolved Fluorescence (HTRF) was measured using the Envision (Perkin Elmer) at 665 nm and […]. The ratio of fluorescence at 665 nm to 620 nm was used as a readout for IL6 quantification. All samples were processed in duplicate. Readings were normalized to DMSO treated cells and normalized activities were utilized for EC50 calculations using the dose-response log (inhibitor) vs. response—variable slope (four parameters) nonlinear regression feature available in GraphPad Prism 5.0 (or Dotmatics). For EC50 of >10 μM, the percent inhibition at 10 μM is provided.

EC50 [1]	EC50 [2]	EC50 [4]	SMILES	inhibition at 10 µM [1]	EC50 [3]	inhibition at 10 µM [2]	inhibition at 10 µM ([3]; given for EC50 >10 μM, read-out: percent inhibition at 10 μM)
> 10 µM	2.45 µM	4.16 µM	Fc1cccc(-c2ccnc3[nH]c(-c4n[nH]c5ncc(-c6cncc(CNCc7ccccc7)c6)cc45)cc23)c1 [Compound 24, N-Benzyl-1-(5-(3-(4-(3-fluorophenyl)-1H-pyrrolo[2,3-b]pyridin-2-yl)-1H-pyrazolo[3,4-b]pyridin-5-yl)pyridin-3-yl)methanamine]	25.8%	1.05 µM	–	–
> 10 µM	> 10 µM	–	CC(C)(C)C(=O)Nc1cncc(-c2cnc3[nH]nc(-c4cc5c(-c6ccc(F)cc6)ccnc5[nH]4)c3c2)c1 [Compound 36, N-(5-(3-(4-(4-Fluorophenyl)-1H-pyrrolo[2,3-b]pyridin-2-yl)-1H-pyrazolo [3,4-b]pyridin-5-yl)pyridin-3-yl)pivalamide]	12.7%	> 10 µM	11.9%	33.9%
> 10 µM	5.38 µM	3.89 µM	c1cc(N2CCCCC2)c2cc(-c3n[nH]c4ncc(C5CCNCC5)cc34)[nH]c2n1 [Compound 601, 3-(4-(Piperidin-1-yl)-1H-pyrrolo[2,3-b]pyridin-2-yl)-5-(piperidin-4-yl)-1H-pyrazolo[3,4-b]pyridine]	36.6%	9.66 µM	–	–

SMILES	EC50 [1]	EC50 [2]	EC50 [4]	inhibition at 10 µM [1]	EC50 [3]	inhibition at 10 µM [2]	inhibition at 10 µM ([3]; given for EC50 >10 μM, read-out: percent inhibition at 10 μM)
O=C(Nc1cncc(-c2cnc3[nH]nc(-c4cc5c(N6CCCCC6)ccnc5[nH]4)c3c2)c1)C1CC1 [Compound 188, N-(5-(3-(4-(Piperidin-1-yl)-1H-pyrrolo[2,3-b]pyridin-2-yl)-1H-pyrazolo[3,4-b]pyridin-5-yl)pyridin-3-yl)cyclopropanecarboxamide]	3.31 µM	> 10 µM	0.348 µM	–	1.79 µM	40.8%	–
